Measurements from patent US20260028365A1 (BIOGEN MA INC., priority 2022, published 2026).

Target: JH2 domain of human Tyk2 (Homo sapiens (Human), UniProt P29597)
Assay: JH2 Biochemical Assay (TR-FRET probe displacement)
Format: binding
Settings: JH2 domain of human Tyk2, TR-FRET probe displacement
Method: The inhibitory potency of compounds of the disclosure against the kinase activity of recombinantly generated JH2 domain of human Tyk2 was evaluated in a plate-based assay using a TR-FRET assay platform. Briefly, 2 nM of recombinant JH2 domain [10×His-tagged TYK2 JH2 domain (amino acid 575-876)] was combined with 2 nM probe ((S)-6-amino-9-(2-carboxy-4-((1-(3-(8-methyl-5-(methylamino)-8H-imidazo[4,5-d]thiazolo[5,4-b]pyridin-2-yl)phenyl)ethyl)carbamoyl)phenyl)-3-iminio-5-sulfo-3H-xanthene-4-sulfonate), 0.1 nM Tb-labeled anti-His antibody, and compounds of disclosure for 60 minutes. Compounds are tested at either 10 μM or 1 μM top concentration, 10 points of 3-fold dilution. The TR-FRET signal inversely correlates to the amount of probe displaced by compounds and signal was calculated by taking the ratio of fluorescence at 520 nm and 495 nm. The data was normalized and the percent activity versus log concentration of compound was fitted with a 4-parameter logistic model to generate IC50 curves.

JH2 domain of human Tyk2, sequence (P29597 575-876): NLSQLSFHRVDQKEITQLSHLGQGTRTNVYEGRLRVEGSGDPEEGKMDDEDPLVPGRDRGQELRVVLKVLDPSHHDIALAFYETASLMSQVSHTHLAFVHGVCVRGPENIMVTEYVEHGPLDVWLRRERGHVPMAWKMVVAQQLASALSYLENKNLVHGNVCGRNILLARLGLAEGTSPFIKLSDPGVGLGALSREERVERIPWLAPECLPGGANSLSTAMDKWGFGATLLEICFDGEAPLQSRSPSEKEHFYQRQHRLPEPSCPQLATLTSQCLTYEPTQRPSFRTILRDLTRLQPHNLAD

`COc1cnc(NC(C)=O)cc1Nc1cc(-c2cc(C)c3nc(C)nn3c2)nc(C(C)(F)F)n1` [Example 397, N-(4-((2-(1,1-difluoroethyl)-6-(2,8-dimethyl-[1,2,4]triazolo[1,5-a]pyridin-6-yl)pyrimidin-4-yl)amino)-5-methoxypyridin-2-yl)acetamide] and `COc1cnc(NC(C)=O)cc1Nc1cc(-c2cc(C)c3nc(C)cn3c2)nc(C(C)(F)F)n1` [Example 403, N-(4-((2-(1,1-difluoroethyl)-6-(2,8-dimethylimidazo[1,2-a]pyridin-6-yl)pyrimidin-4-yl)amino)-5-methoxypyridin-2-yl)acetamide] cannot be ordered by IC50: ≤ 10 nM for the first, ≤ 10 nM for the second.

For `COc1cnc(NC(C)=O)cc1Nc1cc(-c2cc(C)c3nn(C)cc3c2)nc(C(C)(F)F)n1` [Example 400, N-(4-((2-(1,1-difluoroethyl)-6-(2,7-dimethyl-2H-indazol-5-yl)pyrimidin-4-yl)amino)-5-methoxypyridin-2-yl)acetamide], the IC50 was ≤ 10 nM.

Same assay, conditions: TR-FRET probe displacement, JH2 domain of human Tyk2

`CCOc1cnc(NC(=O)C2CC2)cc1Nc1cc(C)nc(C(C)(F)F)n1` [Example 28, N-(4-((2-(1,1-difluoroethyl)-6-methylpyrimidin-4-yl)amino)-5-ethoxypyridin-2-yl)cyclopropanecarboxamide] and `CC(=O)Nc1cc(Nc2cc(C)nc(C(C)(F)F)n2)c(OCCOC2CC2)cn1` [Example 316, N-(5-(2-cyclopropoxyethoxy)-4-((2-(1,1-difluoroethyl)-6-methylpyrimidin-4-yl)amino)pyridin-2-yl)acetamide] cannot be ordered by IC50: 10 to 100 nM for the first, ≤ 10 nM for the second.

First: CCOc1cnc(NC(C)=O)cc1Nc1cc(C(C)(F)F)ncn1 [Example 33, N-(4-((6-(1,1-difluoroethyl)pyrimidin-4-yl)amino)-5-ethoxypyridin-2-yl)acetamide]
Second: CC(=O)Nc1cc(Nc2cc(C)nc(C(C)(F)F)n2)c(OCc2ncsc2C)cn1 [Example 329, N-(4-((2-(1,1-difluoroethyl)-6-methylpyrimidin-4-yl)amino)-5-((5-methylthiazol-4-yl)methoxy)pyridin-2-yl)acetamide]
The IC50 of the first is higher: 100 to 1000 nM for the first, 10 to 100 nM for the second.

First: CC(=O)Nc1cc(Nc2cc(C)nc(C(C)(F)F)n2)c(C(C)C)cn1 [Example 44, N-(4-((2-(1,1-difluoroethyl)-6-methylpyrimidin-4-yl)amino)-5-isopropylpyridin-2-yl)acetamide]
Second: CC(=O)Nc1cc(Nc2cc(C)nc(C(C)(F)F)n2)c(CCCN(C)C)cn1 [Example 151, N-(4-((2-(1,1-difluoroethyl)-6-methylpyrimidin-4-yl)amino)-5-(3-(dimethylamino)propyl)pyridin-2-yl)acetamide]
The IC50 of the first is lower: 10 to 100 nM for the first, 100 to 1000 nM for the second. The first is the more potent here.

Compared with `CCOc1cnc(NC(C)=O)cc1N(C)c1cc(C)nc(C(C)(F)F)n1` [Example 54, N-(4-((2-(1,1-difluoroethyl)-6-methylpyrimidin-4-yl)(methyl)amino)-5-ethoxypyridin-2-yl)acetamide], `COCCCc1cnc(NC(C)=O)cc1Nc1cc(C)nc(C(C)(F)F)n1` [Example 152, N-(4-((2-(1,1-difluoroethyl)-6-methylpyrimidin-4-yl)amino)-5-(3-methoxypropyl)pyridin-2-yl)acetamide] is lower in IC50: ≥ 1000 nM for the first, 10 to 100 nM for the second.

`CCc1cc(Nc2cc(NC(C)=O)ncc2-c2noc(C)n2)nc(C(C)(F)F)n1` [Example 170, N-(4-((2-(1,1-difluoroethyl)-6-ethylpyrimidin-4-yl)amino)-5-(5-methyl-1,2,4-oxadiazol-3-yl)pyridin-2-yl)acetamide] and `CCc1cc(Nc2cc(NC(C)=O)ncc2-c2ccc(OC)nn2)nc(C(C)(F)F)n1` [Example 220, N-(4-((2-(1,1-difluoroethyl)-6-ethylpyrimidin-4-yl)amino)-5-(6-methoxypyridazin-3-yl)pyridin-2-yl)acetamide] cannot be ordered by IC50: 10 to 100 nM for the first, ≤ 10 nM for the second.

First: CC(=O)Nc1cc(Nc2ccnc(C(C)(F)F)c2)c(-c2cc(C)ncn2)cn1 [Example 199, N-(4-((2-(1,1-difluoroethyl)pyridin-4-yl)amino)-5-(6-methylpyrimidin-4-yl)pyridin-2-yl)acetamide]
Second: CC(=O)Nc1cc(Nc2cc(C)nc(C(C)(F)F)n2)c(-c2cc(C(C)(C)C#N)ncn2)cn1 [Example 241, N-(5-(6-(2-cyanopropan-2-yl)pyrimidin-4-yl)-4-((2-(1,1-difluoroethyl)-6-methylpyrimidin-4-yl)amino)pyridin-2-yl)acetamide]
The IC50 of the first is lower: 10 to 100 nM for the first, 100 to 1000 nM for the second.

`CC(=O)Nc1cc(Nc2cc(C)nc(C(C)(F)F)n2)c(-c2cc(N3CCN(C)CC3)ncn2)cn1` [Example 248, N-(4-((2-(1,1-difluoroethyl)-6-methylpyrimidin-4-yl)amino)-5-(6-(4-methylpiperazin-1-yl)pyrimidin-4-yl)pyridin-2-yl)acetamide] and `CC(=O)Nc1cc(Nc2cc(C)nc(C(C)(F)F)n2)c(-c2nc3c(s2)CN(CC#N)CC3)cn1` [Example 285, N-(5-(5-(cyanomethyl)-4,5,6,7-tetrahydrothiazolo[5,4-c]pyridin-2-yl)-4-((2-(1,1-difluoroethyl)-6-methylpyrimidin-4-yl)amino)pyridin-2-yl)acetamide] cannot be ordered by IC50: 10 to 100 nM for the first, ≤ 10 nM for the second.

`CC(=O)Nc1cc(Nc2cc(C)nc(C(C)(F)F)n2)c(OCC2(C)CCOCC2)cn1` [Example 317, N-(4-((2-(1,1-difluoroethyl)-6-methylpyrimidin-4-yl)amino)-5-((4-methyltetrahydro-2H-pyran-4-yl)methoxy)pyridin-2-yl)acetamide] and `CC(=O)Nc1cc(Nc2cc(C)nc(C(C)(F)F)n2)c(OCC2(CF)CCOCC2)cn1` [Example 340, N-(4-((2-(1,1-difluoroethyl)-6-methylpyrimidin-4-yl)amino)-5-((4-(fluoromethyl)tetrahydro-2H-pyran-4-yl)methoxy)pyridin-2-yl)acetamide] cannot be ordered by IC50: ≤ 10 nM for the first, 10 to 100 nM for the second.

In the case of `CC(=O)Nc1cc(Nc2cc(C)nc(C(C)(F)F)n2)c(OC[C@]23CC[C@](C)(CC2)CO3)cn1` [Example 347, N-(4-((2-(1,1-difluoroethyl)-6-methylpyrimidin-4-yl)amino)-5-(((1s,4s)-4-methyl-2-oxabicyclo[2.2.2]octan-1-yl)methoxy)pyridin-2-yl)acetamide], the IC50 is reported as ≤ 10 nM.

Target: Tyk2 (Homo sapiens (Human), UniProt P29597)
Sequence (P29597 whole entry): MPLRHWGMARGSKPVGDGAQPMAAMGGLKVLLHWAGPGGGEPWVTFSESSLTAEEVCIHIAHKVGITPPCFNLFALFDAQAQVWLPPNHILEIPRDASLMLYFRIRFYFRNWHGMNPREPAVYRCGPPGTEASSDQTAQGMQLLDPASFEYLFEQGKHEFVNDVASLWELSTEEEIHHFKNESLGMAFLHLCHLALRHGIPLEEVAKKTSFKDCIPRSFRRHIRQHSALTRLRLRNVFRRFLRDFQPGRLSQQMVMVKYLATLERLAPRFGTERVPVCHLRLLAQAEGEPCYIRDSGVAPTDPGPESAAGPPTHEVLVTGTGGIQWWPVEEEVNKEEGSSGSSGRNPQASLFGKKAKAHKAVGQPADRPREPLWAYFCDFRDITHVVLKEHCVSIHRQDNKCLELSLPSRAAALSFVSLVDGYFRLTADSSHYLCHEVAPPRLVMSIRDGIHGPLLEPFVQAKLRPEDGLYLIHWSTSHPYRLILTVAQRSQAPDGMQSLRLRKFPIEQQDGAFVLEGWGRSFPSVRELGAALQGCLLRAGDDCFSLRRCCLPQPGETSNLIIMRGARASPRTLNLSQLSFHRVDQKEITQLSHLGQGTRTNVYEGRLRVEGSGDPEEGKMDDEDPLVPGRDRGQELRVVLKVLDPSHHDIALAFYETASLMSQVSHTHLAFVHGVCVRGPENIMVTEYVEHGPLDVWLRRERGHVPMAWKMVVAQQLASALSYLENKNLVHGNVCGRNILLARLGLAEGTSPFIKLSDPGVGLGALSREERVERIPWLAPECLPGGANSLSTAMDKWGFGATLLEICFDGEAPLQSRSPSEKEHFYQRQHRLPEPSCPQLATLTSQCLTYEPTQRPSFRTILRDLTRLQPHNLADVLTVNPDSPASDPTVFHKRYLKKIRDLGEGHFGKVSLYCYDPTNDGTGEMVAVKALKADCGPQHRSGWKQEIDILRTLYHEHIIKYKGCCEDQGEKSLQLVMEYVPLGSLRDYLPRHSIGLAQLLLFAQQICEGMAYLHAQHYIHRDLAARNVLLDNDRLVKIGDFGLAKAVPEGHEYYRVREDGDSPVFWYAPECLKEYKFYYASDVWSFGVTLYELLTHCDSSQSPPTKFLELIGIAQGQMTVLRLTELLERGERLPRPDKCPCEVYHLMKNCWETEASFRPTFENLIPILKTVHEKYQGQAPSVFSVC
Assay: pSTAT4 Cell Assay (MSD, NK92 cells)
Format: cell-based
Settings: not given

`CCc1cc(Nc2cc(NC(C)=O)ncc2-c2ccc(F)c(CN3C[C@H]4C[C@@H]3CO4)n2)nc(C(C)(F)F)n1` [Example 908, N-(6-(((1R,4R)-2-oxa-5-azabicyclo[2.2.1]heptan-5-yl)methyl)-4′-((2-(1,1-difluoroethyl)-6-ethylpyrimidin-4-yl)amino)-5-fluoro-[2,3′-bipyridin]-6′-yl)acetamide] and `CCc1cc(Nc2cc(NC(C)=O)ncc2-c2ccc(F)c(CN3C[C@H]4C[C@@H](C3)O4)n2)nc(C(C)(F)F)n1` [Example 915, N-(6-(((1R,5S)-6-oxa-3-azabicyclo[3.1.1]heptan-3-yl)methyl)-4′-((2-(1,1-difluoroethyl)-6-ethylpyrimidin-4-yl)amino)-5-fluoro-[2,3′-bipyridin]-6′-yl)acetamide] cannot be ordered by IC50: ≤ 10 nM for the first, ≤ 10 nM for the second.

First: CCc1cc(Nc2cc(NC(C)=O)ncc2-c2ccnc(CN3CCOCC3)n2)nc(C(C)(F)F)n1 [Example 909, N-(4-((2-(1,1-difluoroethyl)-6-ethylpyrimidin-4-yl)amino)-5-(2-(morpholinomethyl)pyrimidin-4-yl)pyridin-2-yl)acetamide]
Second: CCc1cc(Nc2cc(NC(C)=O)ncc2-c2ccc(F)c(CN3CCOCC3)n2)nc(C(C)(F)F)n1 [Example 910, N-(4′-((2-(1,1-difluoroethyl)-6-ethylpyrimidin-4-yl)amino)-5-fluoro-6-(morpholinomethyl)-[2,3′-bipyridin]-6′-yl)acetamide]
The IC50 of the first is higher: 100 to 1000 nM for the first, ≤ 10 nM for the second. The second is the more potent here.

`CCc1cc(Nc2cc(NC(C)=O)ncc2-c2ccc(CN3C[C@H]4C[C@@H](C3)O4)cn2)nc(C(C)(F)F)n1` [Example 912, N-(5-(((1R,5S)-6-oxa-3-azabicyclo[3.1.1]heptan-3-yl)methyl)-4′-((2-(1,1-difluoroethyl)-6-ethylpyrimidin-4-yl)amino)-[2,3′-bipyridin]-6′-yl)acetamide] and `CCc1cc(Nc2cc(NC(C)=O)ncc2-c2ccnc(CN3C[C@H]4C[C@@H](C3)O4)n2)nc(C(C)(F)F)n1` [Example 913, N-(5-(2-(((1R,5S)-6-oxa-3-azabicyclo[3.1.1]heptan-3-yl)methyl)pyrimidin-4-yl)-4-((2-(1,1-difluoroethyl)-6-ethylpyrimidin-4-yl)amino)pyridin-2-yl)acetamide] cannot be ordered by IC50: ≤ 10 nM for the first, 10 to 100 nM for the second.

`CC(=O)Nc1cc(Nc2cc(C)nc(C(C)(F)F)n2)c(-c2ccc(P(C)(C)=O)cn2)cn1` [Example 916, N-(4′-((2-(1,1-difluoroethyl)-6-methylpyrimidin-4-yl)amino)-5-(dimethylphosphoryl)-[2,3′-bipyridin]-6′-yl)acetamide] and `CC(=O)Nc1cc(Nc2cc(C)nc(C(C)(F)F)n2)c(-c2ccc(P(C)(C)=O)nn2)cn1` [Example 917, N-(4-((2-(1,1-difluoroethyl)-6-methylpyrimidin-4-yl)amino)-5-(6-(dimethylphosphoryl)pyridazin-3-yl)pyridin-2-yl)acetamide] cannot be ordered by IC50: ≤ 10 nM for the first, 10 to 100 nM for the second.

In the case of `CC(=O)Nc1cc(Nc2ccnc(C(C)(F)F)n2)c(-c2csc(CC#N)n2)cn1` [Example 922, N-(5-(2-(cyanomethyl)thiazol-4-yl)-4-((2-(1,1-difluoroethyl)pyrimidin-4-yl)amino)pyridin-2-yl)acetamide], the IC50 is reported as ≤ 10 nM.
